Columns and labels:
Experiment in all cases: KINOMEscan competition binding
Details in all cases: compound 10.0 µM
AKT1 (human) = AKT1 (human) (UniProt P31749)
AKT3 (human) = AKT3 (human) (UniProt Q9Y243)
CDC42BPA (human) = CDC42BPA (human) (UniProt Q5VT25)
CDC42BPG (human) = CDC42BPG (human) (UniProt Q6DT37)
CDK11B (human) = CDK11B (human) (UniProt P21127)
CDK14 (human) = CDK14 (human) (UniProt O94921)
CSF1R (human) = CSF1R (human) (UniProt P07333)
DYRK1B (human) = DYRK1B (human) (UniProt Q9Y463)
Sequence of DYRK1B (human) (Q9Y463 whole entry, looked up): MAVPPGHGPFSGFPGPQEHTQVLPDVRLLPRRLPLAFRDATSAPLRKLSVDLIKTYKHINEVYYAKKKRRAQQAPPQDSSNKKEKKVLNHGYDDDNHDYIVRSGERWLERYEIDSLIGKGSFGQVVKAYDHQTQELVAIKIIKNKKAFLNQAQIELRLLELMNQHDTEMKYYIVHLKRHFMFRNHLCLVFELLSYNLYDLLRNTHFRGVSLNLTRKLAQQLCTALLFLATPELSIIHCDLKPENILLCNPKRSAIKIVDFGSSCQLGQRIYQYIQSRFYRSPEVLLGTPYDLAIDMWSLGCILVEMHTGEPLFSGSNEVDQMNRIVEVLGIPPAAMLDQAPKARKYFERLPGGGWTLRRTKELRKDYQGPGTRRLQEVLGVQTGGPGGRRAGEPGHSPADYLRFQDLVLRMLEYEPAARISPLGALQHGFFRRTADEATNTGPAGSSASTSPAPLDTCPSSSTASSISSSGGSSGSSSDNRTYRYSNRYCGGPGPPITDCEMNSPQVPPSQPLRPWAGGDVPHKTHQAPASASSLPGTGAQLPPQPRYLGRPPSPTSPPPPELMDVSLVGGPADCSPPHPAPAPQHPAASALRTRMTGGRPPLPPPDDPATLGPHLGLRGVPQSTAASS

[1] = test system: EGFR (human), P00533 [752-759 del]
EPHA8 (human) = EPHA8 (human) (UniProt P29322)
LYN (human) = LYN (human) (UniProt P07948)
MAP2K2 (human) = MAP2K2 (human) (UniProt P36507)
MAP2K3 (human) = MAP2K3 (human) (UniProt P46734)
Sequence of MAP2K3 (human) (P46734 whole entry, looked up): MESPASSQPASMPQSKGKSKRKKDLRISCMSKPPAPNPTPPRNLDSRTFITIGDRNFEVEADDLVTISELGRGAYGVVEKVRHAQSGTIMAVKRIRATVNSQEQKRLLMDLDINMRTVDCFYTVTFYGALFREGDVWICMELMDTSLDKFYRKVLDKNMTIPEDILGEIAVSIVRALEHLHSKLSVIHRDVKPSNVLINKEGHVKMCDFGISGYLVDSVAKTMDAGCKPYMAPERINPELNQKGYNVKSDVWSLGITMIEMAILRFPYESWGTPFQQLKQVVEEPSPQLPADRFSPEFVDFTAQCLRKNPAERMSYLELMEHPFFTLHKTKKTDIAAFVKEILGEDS

MAP2K4 (human) = MAP2K4 (human) (UniProt P45985)
MAP4K3 (human) = MAP4K3 (human) (UniProt Q8IVH8)
MAPK1 (human) = MAPK1 (human) (UniProt P28482)
Sequence of MAPK1 (human) (P28482 whole entry, looked up): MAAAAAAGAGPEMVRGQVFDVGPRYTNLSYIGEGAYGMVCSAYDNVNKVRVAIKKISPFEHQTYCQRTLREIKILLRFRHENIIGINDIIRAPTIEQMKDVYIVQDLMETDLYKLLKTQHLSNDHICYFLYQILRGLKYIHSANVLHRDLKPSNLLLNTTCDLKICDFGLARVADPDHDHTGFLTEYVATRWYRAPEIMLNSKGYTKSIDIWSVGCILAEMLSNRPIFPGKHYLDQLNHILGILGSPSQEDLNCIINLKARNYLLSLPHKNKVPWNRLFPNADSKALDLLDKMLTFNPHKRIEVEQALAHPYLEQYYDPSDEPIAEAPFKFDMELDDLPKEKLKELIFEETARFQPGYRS

MAPK10 (human) = MAPK10 (human) (UniProt P53779)
MAPK15 (human) = MAPK15 (human) (UniProt Q8TD08)
[2] = test system: MET (human), P08581 [Y1235D]
MKNK2 (human) = MKNK2 (human) (UniProt Q9HBH9)
NLK (human) = NLK (human) (UniProt Q9UBE8)
PAK3 (human) = PAK3 (human) (UniProt O75914)
PAK6 (human) = PAK6 (human) (UniProt Q9NQU5)
PDGFRB (human) = PDGFRB (human) (UniProt P09619)
PHKG1 (human) = PHKG1 (human) (UniProt Q16816)
PIP5K1A (human) = PIP5K1A (human) (UniProt Q99755)
Sequence of PIP5K1A (human) (Q99755 whole entry, looked up): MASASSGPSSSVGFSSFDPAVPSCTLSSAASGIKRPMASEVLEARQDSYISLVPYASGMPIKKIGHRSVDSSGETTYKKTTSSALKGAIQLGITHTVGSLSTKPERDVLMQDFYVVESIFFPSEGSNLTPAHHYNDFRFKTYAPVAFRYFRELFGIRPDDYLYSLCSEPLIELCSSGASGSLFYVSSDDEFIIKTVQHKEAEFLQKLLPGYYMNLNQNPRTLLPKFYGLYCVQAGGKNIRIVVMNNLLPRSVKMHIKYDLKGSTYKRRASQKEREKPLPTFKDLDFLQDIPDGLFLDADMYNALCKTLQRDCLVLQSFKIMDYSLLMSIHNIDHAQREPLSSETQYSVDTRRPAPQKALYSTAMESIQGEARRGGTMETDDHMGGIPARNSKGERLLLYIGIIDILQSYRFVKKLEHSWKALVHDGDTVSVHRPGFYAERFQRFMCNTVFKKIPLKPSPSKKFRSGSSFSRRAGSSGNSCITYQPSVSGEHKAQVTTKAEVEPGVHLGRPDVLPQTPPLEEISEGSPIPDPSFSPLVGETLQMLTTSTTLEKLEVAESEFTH

PRKCE (human) = PRKCE (human) (UniProt Q02156)
PRKD3 (human) = PRKD3 (human) (UniProt O94806)
PTK2 (human) = PTK2 (human) (UniProt Q05397)
Sequence of PTK2 (human) (Q05397 whole entry, looked up): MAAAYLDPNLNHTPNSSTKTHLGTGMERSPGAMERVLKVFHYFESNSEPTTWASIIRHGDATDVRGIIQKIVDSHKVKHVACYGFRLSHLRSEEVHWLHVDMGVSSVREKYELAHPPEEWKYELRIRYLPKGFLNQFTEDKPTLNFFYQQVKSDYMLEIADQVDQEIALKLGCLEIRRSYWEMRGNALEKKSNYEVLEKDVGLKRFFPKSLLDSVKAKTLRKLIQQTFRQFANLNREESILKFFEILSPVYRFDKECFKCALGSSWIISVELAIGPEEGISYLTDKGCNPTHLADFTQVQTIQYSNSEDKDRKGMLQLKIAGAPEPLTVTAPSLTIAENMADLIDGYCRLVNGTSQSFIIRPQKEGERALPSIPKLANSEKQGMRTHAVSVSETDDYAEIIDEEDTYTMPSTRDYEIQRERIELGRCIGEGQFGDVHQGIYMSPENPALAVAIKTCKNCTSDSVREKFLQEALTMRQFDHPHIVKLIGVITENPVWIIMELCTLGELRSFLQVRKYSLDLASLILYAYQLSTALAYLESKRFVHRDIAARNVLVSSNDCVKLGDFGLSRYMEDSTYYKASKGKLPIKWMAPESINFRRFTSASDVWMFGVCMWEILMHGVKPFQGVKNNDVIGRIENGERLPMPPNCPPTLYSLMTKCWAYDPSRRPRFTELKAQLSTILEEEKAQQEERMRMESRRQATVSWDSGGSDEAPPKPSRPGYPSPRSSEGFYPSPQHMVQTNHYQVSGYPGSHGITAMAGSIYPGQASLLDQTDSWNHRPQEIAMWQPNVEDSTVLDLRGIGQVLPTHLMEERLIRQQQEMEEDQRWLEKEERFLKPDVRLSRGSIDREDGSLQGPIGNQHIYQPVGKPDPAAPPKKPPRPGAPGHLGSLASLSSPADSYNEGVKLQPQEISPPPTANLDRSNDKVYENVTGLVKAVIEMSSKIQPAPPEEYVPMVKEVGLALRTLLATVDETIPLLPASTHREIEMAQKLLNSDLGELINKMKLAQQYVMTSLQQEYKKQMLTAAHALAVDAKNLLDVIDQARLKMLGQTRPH

RIOK1 (human) = RIOK1 (human) (UniProt Q9BRS2)
RPS6KA2 KD2 (human) = RPS6KA2 KD2 (human) (UniProt Q15349)
SBK1 (human) = SBK1 (human) (UniProt Q52WX2)
SIK1 (human) = SIK1 (human) (UniProt P57059)
Sequence of SIK1 (human) (P57059 whole entry, looked up): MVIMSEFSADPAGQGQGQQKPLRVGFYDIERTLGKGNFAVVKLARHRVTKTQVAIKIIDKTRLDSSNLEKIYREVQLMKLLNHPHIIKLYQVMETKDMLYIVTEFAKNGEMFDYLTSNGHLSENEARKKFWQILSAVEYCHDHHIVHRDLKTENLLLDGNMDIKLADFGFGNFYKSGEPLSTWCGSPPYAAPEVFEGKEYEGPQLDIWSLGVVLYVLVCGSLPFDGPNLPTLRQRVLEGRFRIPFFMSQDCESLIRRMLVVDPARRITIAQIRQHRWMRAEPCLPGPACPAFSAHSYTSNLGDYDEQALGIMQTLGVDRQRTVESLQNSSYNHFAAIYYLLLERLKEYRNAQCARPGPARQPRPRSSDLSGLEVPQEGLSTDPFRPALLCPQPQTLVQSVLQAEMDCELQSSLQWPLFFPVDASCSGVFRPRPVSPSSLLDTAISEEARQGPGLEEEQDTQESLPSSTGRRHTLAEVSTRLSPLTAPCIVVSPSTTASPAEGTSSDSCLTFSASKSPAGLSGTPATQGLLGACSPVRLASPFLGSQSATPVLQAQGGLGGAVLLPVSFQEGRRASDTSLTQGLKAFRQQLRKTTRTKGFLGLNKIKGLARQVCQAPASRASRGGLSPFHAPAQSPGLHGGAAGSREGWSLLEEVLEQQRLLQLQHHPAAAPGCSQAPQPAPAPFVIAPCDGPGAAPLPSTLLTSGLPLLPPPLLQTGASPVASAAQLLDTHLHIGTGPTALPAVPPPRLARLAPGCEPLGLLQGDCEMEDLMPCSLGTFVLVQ

SIK3 (human) = SIK3 (human) (UniProt Q9Y2K2)
Sequence of SIK3 (human) (Q9Y2K2 whole entry, looked up): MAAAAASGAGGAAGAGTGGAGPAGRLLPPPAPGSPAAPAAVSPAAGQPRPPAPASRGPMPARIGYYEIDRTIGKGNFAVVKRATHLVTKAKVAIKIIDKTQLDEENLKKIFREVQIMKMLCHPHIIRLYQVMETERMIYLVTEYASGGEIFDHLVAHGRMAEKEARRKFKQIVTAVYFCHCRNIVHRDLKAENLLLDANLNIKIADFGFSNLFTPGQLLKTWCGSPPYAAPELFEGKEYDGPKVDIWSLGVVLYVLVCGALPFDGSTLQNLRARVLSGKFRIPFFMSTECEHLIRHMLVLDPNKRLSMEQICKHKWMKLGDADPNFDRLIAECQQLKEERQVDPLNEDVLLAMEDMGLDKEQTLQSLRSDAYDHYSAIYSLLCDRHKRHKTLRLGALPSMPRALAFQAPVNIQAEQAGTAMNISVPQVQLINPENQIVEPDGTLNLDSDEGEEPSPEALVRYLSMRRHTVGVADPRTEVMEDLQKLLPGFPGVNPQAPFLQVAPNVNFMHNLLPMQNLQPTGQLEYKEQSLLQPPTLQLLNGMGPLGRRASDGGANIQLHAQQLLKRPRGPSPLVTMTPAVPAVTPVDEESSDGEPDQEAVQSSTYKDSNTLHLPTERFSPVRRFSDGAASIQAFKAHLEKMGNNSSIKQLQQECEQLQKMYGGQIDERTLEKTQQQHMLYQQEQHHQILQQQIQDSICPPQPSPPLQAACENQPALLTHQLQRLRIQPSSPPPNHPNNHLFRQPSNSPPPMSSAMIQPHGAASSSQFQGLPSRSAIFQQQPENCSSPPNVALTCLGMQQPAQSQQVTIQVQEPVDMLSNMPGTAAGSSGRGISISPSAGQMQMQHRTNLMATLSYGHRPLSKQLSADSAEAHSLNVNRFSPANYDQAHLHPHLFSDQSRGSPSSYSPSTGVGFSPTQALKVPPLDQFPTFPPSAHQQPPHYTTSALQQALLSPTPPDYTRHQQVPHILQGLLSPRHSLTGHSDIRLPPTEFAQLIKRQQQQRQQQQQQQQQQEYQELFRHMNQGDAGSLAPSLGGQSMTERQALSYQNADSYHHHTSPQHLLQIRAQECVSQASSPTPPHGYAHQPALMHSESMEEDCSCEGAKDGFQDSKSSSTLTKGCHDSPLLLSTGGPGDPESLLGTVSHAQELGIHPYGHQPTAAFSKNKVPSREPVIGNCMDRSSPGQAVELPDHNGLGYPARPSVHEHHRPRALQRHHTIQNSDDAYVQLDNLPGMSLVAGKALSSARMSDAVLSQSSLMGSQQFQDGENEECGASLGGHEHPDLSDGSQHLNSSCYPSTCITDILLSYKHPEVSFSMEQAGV

SRPK3 (human) = SRPK3 (human) (UniProt Q9UPE1)
TTK (human) = TTK (human) (UniProt P33981)
[3] = molecular target: TYK2 JH2 pseudokinase (human) (UniProt P29597)
YSK4 (human) = YSK4 (human) (UniProt Q56UN5)
[4] = test system: FLT3 (human), P36888 [R834Q]
VRK2 (human) = VRK2 (human) (UniProt Q86Y07)

kinase still bound, per cent of control (AKT1 (human))	kinase still bound, per cent of control (AKT3 (human))	kinase still bound, per cent of control (CDC42BPA (human))	kinase still bound, per cent of control (CDC42BPG (human))	kinase still bound, per cent of control (CDK11B (human))	kinase still bound, per cent of control (CDK14 (human))	kinase still bound, per cent of control (CSF1R (human))	kinase still bound, per cent of control (DYRK1B (human))	kinase still bound, per cent of control (EPHA8 (human))	kinase still bound, per cent of control (LYN (human))	kinase still bound, per cent of control (MAP2K2 (human))	kinase still bound, per cent of control (MAP2K3 (human))	kinase still bound, per cent of control (MAP2K4 (human))	kinase still bound, per cent of control (MAPK1 (human))	kinase still bound, per cent of control (MAPK10 (human))	kinase still bound, per cent of control (MKNK2 (human))	kinase still bound, per cent of control (NLK (human))	kinase still bound, per cent of control (PAK3 (human))	kinase still bound, per cent of control (PAK6 (human))	Structure (SMILES)	kinase still bound, per cent of control (MAPK15 (human))	other results
100%	100%	100%	100%	100%	100%	100%	100%	100%	100%	100%	100%	100%	100%	100%	100%	100%	100%	100%	CS(=O)(=O)N1CCN(Cc2cc3nc(-c4cccc5[nH]ncc45)nc(N4CCOCC4)c3s2)CC1	100%	kinase still bound, per cent of control [1]: 100%; kinase still bound, per cent of control (MAP4K3 (human)): 100%; kinase still bound, per cent of control [2]: 100%; kinase still bound, per cent of control (PDGFRB (human)): 100%; kinase still bound, per cent of control (PHKG1 (human)): 100%; kinase still bound, per cent of control (PIP5K1A (human)): 100%; kinase still bound, per cent of control (PRKCE (human)): 100%; kinase still bound, per cent of control (PRKD3 (human)): 100%; kinase still bound, per cent of control (PTK2 (human)): 100%; kinase still bound, per cent of control (RIOK1 (human)): 100%; kinase still bound, per cent of control (RPS6KA2 KD2 (human)): 100%; kinase still bound, per cent of control (SBK1 (human)): 100%; kinase still bound, per cent of control (SIK1 (human)): 100%; kinase still bound, per cent of control (SIK3 (human)): 100%; kinase still bound, per cent of control (SRPK3 (human)): 100%; kinase still bound, per cent of control (TTK (human)): 100%; kinase still bound, per cent of control [3]: 100%; kinase still bound, per cent of control (YSK4 (human)): 100%
100%	100%	100%	100%	100%	100%	0.15%	100%	100%	34%	100%	100%	100%	100%	100%	100%	100%	100%	100%	CCN(CC)CCCCNc1ncc2c(n1)N(C)C(=O)N(c1c(Cl)c(OC)cc(OC)c1Cl)C2	100%	kinase still bound, per cent of control [1]: 100%; kinase still bound, per cent of control (MAP4K3 (human)): 100%; kinase still bound, per cent of control [2]: 100%; kinase still bound, per cent of control (PDGFRB (human)): 21%; kinase still bound, per cent of control (PHKG1 (human)): 100%; kinase still bound, per cent of control (PIP5K1A (human)): 100%; kinase still bound, per cent of control (PRKCE (human)): 100%; kinase still bound, per cent of control (PRKD3 (human)): 100%; kinase still bound, per cent of control (PTK2 (human)): 100%; kinase still bound, per cent of control (RIOK1 (human)): 100%; kinase still bound, per cent of control (RPS6KA2 KD2 (human)): 100%; kinase still bound, per cent of control (SBK1 (human)): 100%; kinase still bound, per cent of control (SIK1 (human)): 100%; kinase still bound, per cent of control (SIK3 (human)): 100%; kinase still bound, per cent of control (SRPK3 (human)): 100%; kinase still bound, per cent of control (TTK (human)): 100%; kinase still bound, per cent of control [3]: 100%; kinase still bound, per cent of control (YSK4 (human)): 100%
100%	100%	100%	100%	100%	100%	16%	100%	100%	100%	100%	100%	100%	100%	100%	0%	100%	100%	100%	COc1cc(N2CCN(C)CC2)ccc1Nc1ncc2c(n1)N(C)c1ccccc1C(=O)N2C	100%	kinase still bound, per cent of control [1]: 100%; kinase still bound, per cent of control (MAP4K3 (human)): 100%; kinase still bound, per cent of control [2]: 100%; kinase still bound, per cent of control (PDGFRB (human)): 100%; kinase still bound, per cent of control (PHKG1 (human)): 100%; kinase still bound, per cent of control (PIP5K1A (human)): 100%; kinase still bound, per cent of control (PRKCE (human)): 100%; kinase still bound, per cent of control (PRKD3 (human)): 5.4%; kinase still bound, per cent of control (PTK2 (human)): 16%; kinase still bound, per cent of control (RIOK1 (human)): 100%; kinase still bound, per cent of control (RPS6KA2 KD2 (human)): 15%; kinase still bound, per cent of control (SBK1 (human)): 8.9%; kinase still bound, per cent of control (SIK1 (human)): 100%; kinase still bound, per cent of control (SIK3 (human)): 100%; kinase still bound, per cent of control (SRPK3 (human)): 100%; kinase still bound, per cent of control (TTK (human)): 26%; kinase still bound, per cent of control [3]: 100%; kinase still bound, per cent of control (YSK4 (human)): 100%

Structure (SMILES)	kinase still bound, per cent of control (AKT1 (human))	kinase still bound, per cent of control (AKT3 (human))	kinase still bound, per cent of control (CDC42BPA (human))	kinase still bound, per cent of control (CDC42BPG (human))	kinase still bound, per cent of control (CDK11B (human))	kinase still bound, per cent of control (CDK14 (human))	kinase still bound, per cent of control (CSF1R (human))	kinase still bound, per cent of control (DYRK1B (human))	kinase still bound, per cent of control (EPHA8 (human))	kinase still bound, per cent of control (LYN (human))	kinase still bound, per cent of control (MAP2K2 (human))	kinase still bound, per cent of control (MAP2K3 (human))	kinase still bound, per cent of control (MAP2K4 (human))	kinase still bound, per cent of control (MAPK1 (human))	kinase still bound, per cent of control (MAPK10 (human))	kinase still bound, per cent of control (MKNK2 (human))	kinase still bound, per cent of control (NLK (human))	kinase still bound, per cent of control (PAK3 (human))	kinase still bound, per cent of control (PAK6 (human))	kinase still bound, per cent of control (MAPK15 (human))	other results
C[C@@H](Oc1cc(-c2cnn(C3CCNCC3)c2)cnc1N)c1c(Cl)ccc(F)c1Cl	100%	100%	43%	48%	0.1%	92%	0.15%	84%	0.2%	13%	54%	42%	93%	100%	80%	11%	93%	5.8%	72%	80%	kinase still bound, per cent of control [4]: 25%; kinase still bound, per cent of control (PDGFRB (human)): 44%; kinase still bound, per cent of control (PHKG1 (human)): 100%; kinase still bound, per cent of control (PIP5K1A (human)): 0.1%; kinase still bound, per cent of control (PRKCE (human)): 100%; kinase still bound, per cent of control (PRKD3 (human)): 3%; kinase still bound, per cent of control (PTK2 (human)): 0%; kinase still bound, per cent of control (RIOK1 (human)): 3.4%; kinase still bound, per cent of control (RPS6KA2 KD2 (human)): 28%; kinase still bound, per cent of control (SBK1 (human)): 6%; kinase still bound, per cent of control (SIK1 (human)): 24%; kinase still bound, per cent of control (SRPK3 (human)): 15%; kinase still bound, per cent of control (TTK (human)): 50%; kinase still bound, per cent of control [3]: 2.3%; kinase still bound, per cent of control (VRK2 (human)): 100%; kinase still bound, per cent of control (YSK4 (human)): 2.4%
